The source of these data is patent publication US12673025B2, “Pegylated liposomes and uses thereof” (LT BIOPHARMA INC., priority 2024, dated 2026).

In brackets after ≈: the same amount, converted by molar mass. Like-named read-outs stand apart in the source and are kept apart here.

In experiment [1] the test system is Pseudomonas aeruginosa ATCC 27853. Briefly: MIC broth microdilution assay. The class given is cell-based. The conditions noted are these: for antibacterial activity: Pseudomonas aeruginosa (ATCC278533); for MIC: ATCC27853. The protocol:
(§1) For the purpose of antimicrobial activity evaluation of liposome encapsulated nosiheptide, bacteria strain was cultivated in tryptic soy broth (Difco, Becton, Dickinson, Sparks, MD) or brain heart infusion broth (Difco, Becton, Dickinson, Sparks, MD) at 37° C. for 16˜18 hours to the stationary phase. After that, 1000 μl of inoculums were treated to 15 ml tryptic soy broth medium and incubated at 37° C. for 3˜4 hours. Bacteria counts were determined to 5×10^5 CFU/ml for antimicrobial activity via absorbance value of OD600 (1 OD600=1×10^8 CFU/ml) by spectrophotometer. (Ultraspec 2100 Pro, UV/Visible spectrophotometer, Biochrom, Massachusetts, USA)
(§2) The minimum inhibitory concentration values of peptides and liposome encapsulated peptides were evaluated by standard broth microdilution assay which was referred to the guideline of the Clinical and Laboratory Standards Institute (CLSI) (M27-A4., C.a.L.S.I.a.s.t.e.C.d., Reference method for broth dilution antifungal susceptibility testing of yeasts. Clinical and Laboratory Standards Institute, Wayne, PA., 2017). MIC assays were carried out with initial bacterial inoculum of 5×10^5 colony forming units (CFU/ml) in suitable medium. Peptides and liposome encapsulated peptides were added to polystyrene 96-well plates with serial dilution. Vancomycin-Resistant Staphylococcus aureus (VRSA01), Staphylococcus aureus (ATCC29213), Staphylococcus aureus (ATCC33591), Pseudomonas aeruginosa (ATCC278533) were cultivated in TSB broth. MICs was preliminarily defined as the lowest concentration of peptides which inhibited the 90% visible growth of bacteria.
(§3) The concentration-diluted peptide was treated 1 μl in 96-well plates. Subsequently, 99 μl medium which containing 5×10^5 CFU/ml bacteria inoculum were loaded individually in each wells, the serial-diluted concentration of peptide were from 8 to 0.0625 μg/ml. Evaluation of bacterial growth were performed by measuring the OD at 600 nm in a microplate reader (TECAN, Sunrise™) over 16 hours at 37° C. Medium-treated wells were used as the control, and all experiments were carried out in triplicate.

The subject of experiment [2] is Staphylococcus aureus (ATCC33591). Briefly: MIC broth microdilution assay. The format is cell-based. The method, then:
as §1, §2, §3
In general terms: Broth dilution looks for growth in wells or tubes with falling amounts of substance.

Experiment [3] deals with Staphylococcus aureus (ATCC29213). Description: MIC broth microdilution assay. The class given is cell-based. The method, then:
as §1, §2, §3

For experiment [4], the system named is Vancomycin-Resistant Staphylococcus aureus (VRSA01). Briefly: MIC broth microdilution assay. The class given is cell-based. The method, then: as §1, §2, §3
The subject of experiment [5] is Staphylococcus aureus (ATCC19636). Description: MIC broth microdilution assay. The class given is cell-based.
The test system of the next experiment is VRSA 01. Description: Time-kill analysis. The format is cell-based, Staphylococcus aureus. The conditions noted are these: ¼×MIC. The method, then:
The antimicrobial activity of nosiheptide and nosiheptide liposome against VRSA 01 were assessed by time-kill analysis. VRSA 01 was cultured in TSB medium overnight. After that, fresh TSB was inoculated for growth to mid-logarithmic phase. Bacteria was added at starting inoculum of 5×10^9 CFU/ml. Nosiheptide and nosiheptide liposome were added to final concentrations with 1×MIC and ¼×MIC, the value of MICs were determined in previous experiments. Bacteria with only medium was regarded as the grown control. The cultures were incubated in 37° C. shaking incubator, and aliquots were removed from each tube at 1, 2, 4, 8, 24 hours and serially diluted for CFU enumeration on TSA plates. To compare rates of antibiotic killing, the decline of viable bacteria (Log10 CFU/ml) was evaluated at the measured time points. Experiments were repeated independently in triplicate. The lower limit of detection for the colony counts was 2 log10 CFU/ml.

Experiment [6] concerns Staphylococcus aureus (ATCC33591). Briefly: Murine model of i.v. S. aureus infection (survival). The class given is in vivo, mice. The conditions noted are these: 20 mg/kg i.v. at 1 and 8 hours after infection. The method, then: Establishment of murine injection model of was assessed to test in vivo efficacy of nosiheptide liposome. Eight-week-old female ICR mice (LASCO, Taipei, Taiwan) were injected i.v. with 1×10^9 CFU/ml of Staphylococcus aureus (ATCC33591) strain in PBS buffer (pH=7.42).

The subject of a further experiment is A549 cells. Description: MTT cell viability assay. The format is cell-based. The conditions noted are these: Homo sapiens, A549 lung cancer cells, 24 h. The protocol: (§4) The MTT assay was performed to determine cell viability. 5×10^3 cells per well with 100 μl cell medium were plated in 96-well plates, incubating for 24 hours. Then, the cell medium in plates was removed and each well was treated medium with free nosiheptide or liposome encapsulated nosiheptide in serial-diluted concentration from 3.125 to 50 μM. The medium with PBS buffer was regarded as the control group. After incubating 24 hours, the medium was removed and 100 μl medium-diluted 10% MTT was added in the 96 well plate. After incubation for 3 hours, the MTT solution was removed and the residual formazan crystal was dissolved with 100 μl DMSO (Dimethyl sulfoxide, Sigma Aldrich). The cell viability was determined by measuring the absorbance at 570 nm using ELISA Reader (TECAN, Sunrise™), and the data was calculated by the following formula: […]
(§5) The range of IC50 values was obtained by observing the curve, and all experiments were carried out in triplicate.

Another experiment concerns HFW cells. Briefly: MTT cell viability assay. The class given is cell-based. The conditions noted are these: HFW normal cells, 24 h. The method, then:
as §4, §5
For orientation: Formazan colour is commonly taken as a measure of viable cells.

For orientation: MIC means the least concentration at which growth counts as inhibited. As for `C=C(NC(=O)C(=C)NC(=O)c1csc(C2=N[C@@H]3c4csc(n4)[C@H]4NC(=O)c5csc(n5)[C@H]([C@](C)(O)[C@@H](C)O)NC(=O)[C@H]5CSC(=N5)/C(=C/C)NC(=O)[C@H]([C@@H](C)O)NC(=O)c5csc(n5)[C@]3(CC2)NC(=O)[C@H](C)NC(=O)C(=C)NC(=O)[C@H](C)NC(=O)[C@H]([C@@H](C)CC)N[C@@H]2C=Cc3c([C@H](C)O)cc(nc3[C@H]2O)C(=O)O[C@@H]4C)n1)C(N)=O` [Thiostrepton Free, Thiostrepton], the “antibacterial activity” value in experiment [1] and in [5] was “no antibacterial activity” each time. In addition, the MIC in experiment [1] (Pseudomonas aeruginosa) is > 8 µg/mL; in experiment [2], 0.625 µg/mL (≈ 0.375 µM); in experiment [3], 0.625 µg/mL (≈ 0.375 µM); in experiment [4] (Staphylococcus aureus), 0.25 µg/mL (≈ 0.15 µM); in experiment [5], > 8 µg/mL.

The term IC50 denotes the concentration that gives 50% inhibition. Lower therefore signals higher potency. `C=C(NC(=O)c1csc(-c2nc3c(cc2O)-c2nc(cs2)C(=O)NC(C(C)O)C(=O)N/C(=C\C)c2nc(cs2)C(=O)NC2CC(O)C(=O)OCc4cccc5[nH]c(c(C)c45)C(=O)SCC(NC(=O)c4csc2n4)c2nc-3cs2)n1)C(N)=O` (stereo not shown) [Nosiheptide Free, Nosiheptide]: the MIC in experiment [1] (Pseudomonas aeruginosa ATCC 27853, read-out: MIC) is > 8 µg/mL; in experiment [2] (read-out: MIC) it was 0.0625 µg/mL (≈ 0.0511 µM); in experiment [3] (read-out: MIC) it was 0.125 µg/mL (≈ 0.102 µM); in [4] (Vancomycin Resistant Staphylococcus aureus 01, read-out: MIC) it was 0.0625 µg/mL (≈ 0.0511 µM); in experiment [5] (read-out: MIC) it was > 8 µg/mL. The “antibacterial activity” value in experiment [1] and in experiment [5] was “no antibacterial activity” in each case. In addition, the “time to 2-log kill” value in the experiment with VRSA 01 is given as 4 hours. Also, in [6] (end of study (7 days)), the survival rate was determined as 62.5%. For the same compound, the “mice died during the first two days” value in [6] (first two days) is listed as “⅜”. The IC50 in the experiment with A549 cells is 26.2 ± 5.26 µM; with HFW cells, 28.3 ± 9.23 µM.
